Assays:
AAD-12 (v2) = target: T1, AAD-12 (v2) (Delftia acidovorans, UniProt P83309); test: Chloropyridinol detection assay (absorbance at 325 nm); format: biochemical; conditions: 6.8 μg AAD-12 (v2), 1 mM substrate; for Rate (mAU/min): 325 nm, background rate 1.4 mAU/min subtracted
T1 construct: made in house; host or cells: Pseudomonas fluorescens strain MB324 (construct pDAB739)
Text: AAD-12 action on potential substrates such as the herbicide triclopyr containing a substituted pyridine (rather than benzene rings) will release a pyridinol on cleavage of the aryloxyalkanoate bond. Pyridinols were not detected using the aminoantipyrine/ferricyanide phenol detection described in the preceding section. […] This was used to create a continuous microplate-based spectrophotometric assay.
All five pyridyloxyalkanoates were cleaved to release pyridinols by AAD-12 (v2). The rates for the oxypropionate substrates 116844 and 91767 were somewhat faster than those for the corresponding acetates (triclopyr and 93833 respectively) indicating a preference of AAD-12 (v2) for oxypropionate over oxyacetate side chains.

[1] = system: AAD-12 x AAD-1 F1 cross tobacco; test: Auxinic herbicide cross tolerance of stacked tobacco, F1 cross; format: in vivo, Nicotiana tabacum; conditions: AAD-12 (v1) x AAD (v3) F1; 280 g ae/ha
Procedure: (§1) Homozygous AAD-12 (v1) (pDAS1580) and AAD-1 (v3) (pDAB721) plants (see PCT/US2005/014737 for the latter) were both reciprocally crossed and F1 seed was collected. The F1 seed from two reciprocal crosses of each gene were stratified and treated 4 reps of each cross were treated under the same spray regimen as used for the other testing with one of the following treatments: 70, 140, 280 g ac/ha fluroxypyr (selective for the AAD-12 (v1) gene); 280, 560, 1120 g ae/ha R-dichloroprop (selective for the AAD-1 (v3) gene); or 560, 1120, 2240 g ae/ha 2,4-D DMA (to confirm 2,4-D tolerance). Homozygous T2 plants of each gene were also planted for use as controls. Plants were graded at 3 and 14 DAT.

[2] = system: AAD-12 (v1) (pDAS1580) T2 tobacco plants; test: Auxinic herbicide cross tolerance of stacked tobacco, AAD-12 T2; format: in vivo, Nicotiana tabacum; conditions: 280 g ae/ha
Procedure: as §1

wildtype tobacco = test: Auxinic herbicide cross tolerance of stacked tobacco, wildtype; format: in vivo, Nicotiana tabacum; conditions: KY160 wildtype control; 280 g ae/ha
Procedure: as §1

[3] = system: AAD-1 (v3) (pDAB721) T2 tobacco plants; test: Auxinic herbicide cross tolerance of stacked tobacco, AAD-1 T2; format: in vivo, Nicotiana tabacum; conditions: 280 g ae/ha
Procedure: as §1

PAT/Cry1F Arabidopsis = test: Glyphosate postemergence dose response, PAT/Cry1F control; format: in vivo, Arabidopsis thaliana; conditions: 14 DAT
Procedure: (§2) T1 Arabidopsis seed was produced, as previously described, containing the pDAB3759 plasmid (AAD-12 (v1)+EPSPS) which encodes a putative glyphosate resistance trait. T1 transformants were selected using AAD-12 (v1) as the selectable marker as described in example 7.6. T1 plants (individually transformed events) were recovered from the first selection attempt and transferred to three-inch pots in the greenhouse as previously described. Three different control Arabidopsis lines were also tested: wildtype Columbia-0, AAD-12 (v1)+PAT T4 homozygous lines (pDAB724-transformed), and PAT+Cry1F homozygous line (transformed control). The pDAB3759 and pDAB724 transformed plants were pre-selected at the seedling stage for 2,4-D tolerance. Four days after transplanting, plants were evenly divided for foliar treatment by track sprayer as previously described with 0, 26.25, 105, 420, or 1680 g ae/ha glyphosate (Glyphomax Plus, Dow AgroSciences) in water. All treatments were replicated 5 to 20 times. Plants were evaluated 7 and 14 days after treatment.

[4] = system: Wildtype (Col-0) Arabidopsis; test: Glyphosate postemergence dose response, wildtype; format: in vivo, Arabidopsis thaliana; conditions: 14 DAT
Procedure: as §2

[5] = system: pDAB724 T4 (PAT + AAD-12) Arabidopsis; test: Glyphosate postemergence dose response, pDAB724 T4; format: in vivo, Arabidopsis thaliana; conditions: 14 DAT
Procedure: as §2

[6] = system: AAD-12 v1 gene + EPSPS + HptII (pDAB3759) T1 Arabidopsis; test: Glyphosate postemergence dose response, AAD-12 + EPSPS stack; format: in vivo, Arabidopsis thaliana; conditions: 14 DAT
Procedure: as §2

[7] = 26.25 g ae/ha glyphosate postemergence
[8] = 105 g ae/ha glyphosate postemergence
[9] = 420 g ae/ha glyphosate postemergence
[10] = 1680 g ae/ha glyphosate postemergence

T1 sequence (P83309 whole entry, looked up, natural form): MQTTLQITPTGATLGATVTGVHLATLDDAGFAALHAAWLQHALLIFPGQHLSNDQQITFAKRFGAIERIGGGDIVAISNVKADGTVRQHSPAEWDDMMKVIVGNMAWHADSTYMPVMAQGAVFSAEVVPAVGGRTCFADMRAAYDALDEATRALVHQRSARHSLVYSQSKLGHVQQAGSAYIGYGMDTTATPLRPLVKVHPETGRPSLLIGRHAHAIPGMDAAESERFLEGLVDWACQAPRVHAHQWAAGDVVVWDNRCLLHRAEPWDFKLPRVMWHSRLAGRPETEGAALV

`CC(Oc1nc(F)c(Cl)cc1Cl)C(=O)O` (centres unmarked) [compound 91767] was tested, and the “Rate relative to triclopyr” value (AAD-12 (v2)) was 0.8 and the “Rate (mAU/min)” value (AAD-12 (v2)) was 190 mAU/min.

For `O=C(O)COc1nc(F)c(Cl)cc1Cl` [compound 93833], the “Rate relative to triclopyr” value (AAD-12 (v2)) was 0.5 and the “Rate (mAU/min)” value (AAD-12 (v2)) was 118 mAU/min.

With `CC(Oc1nc(Cl)c(Cl)cc1Cl)C(=O)O` (centres unmarked) [compound 116844] the “Rate relative to triclopyr” value (AAD-12 (v2)) was 1.4 and the “Rate (mAU/min)” value (AAD-12 (v2)) was 257 mAU/min.

In the case of `Nc1c(Cl)c(F)nc(OCC(=O)O)c1Cl` [fluroxypy], the “Average % injury 14 DAT” value [1] is reported as 3%, the “Average % injury 14 DAT” value [2] is reported as 3% and the “Average % injury 14 DAT” value (wildtype tobacco) is reported as 75%. For the same compound, the “Average % injury 14 DAT” value [3] was 75%.

With `O=C(O)CNCP(=O)(O)O` [glyphosate] the “% Injury 20-40% (number of individuals)” value (PAT/Cry1F Arabidopsis; [7]) was 0, the “% Injury <20% (number of individuals)” value (PAT/Cry1F Arabidopsis; [7]) was 0 and the “% Injury >40% (number of individuals)” value (PAT/Cry1F Arabidopsis; [7]) was 5. For the same compound, the “% Injury Ave” value (PAT/Cry1F Arabidopsis; [7]) was 67%, the “% Injury 20-40% (number of individuals)” value (PAT/Cry1F Arabidopsis; [8]) was 0 and the “% Injury <20% (number of individuals)” value (PAT/Cry1F Arabidopsis; [8]) was 0. For the same compound, the “% Injury >40% (number of individuals)” value (PAT/Cry1F Arabidopsis; [8]) was 5, the “% Injury Ave” value (PAT/Cry1F Arabidopsis; [8]) was 100% and the “% Injury 20-40% (number of individuals)” value (PAT/Cry1F Arabidopsis; [9]) was 0. For the same compound, the “% Injury <20% (number of individuals)” value (PAT/Cry1F Arabidopsis; [9]) was 0, the “% Injury >40% (number of individuals)” value (PAT/Cry1F Arabidopsis; [9]) was 5 and the “% Injury Ave” value (PAT/Cry1F Arabidopsis; [9]) was 100%. The “% Injury 20-40% (number of individuals)” value (PAT/Cry1F Arabidopsis; [10]) was 0, the “% Injury <20% (number of individuals)” value (PAT/Cry1F Arabidopsis; [10]) was 0 and the “% Injury >40% (number of individuals)” value (PAT/Cry1F Arabidopsis; [10]) was 5. The “% Injury Ave” value (PAT/Cry1F Arabidopsis; [10]) was 100%, the “% Injury 20-40% (number of individuals)” value [4, 7] was 0 and the “% Injury <20% (number of individuals)” value [4, 7] was 0. For the same compound, the “% Injury >40% (number of individuals)” value [4, 7] was 5, the “% Injury Ave” value [4, 7] was 75% and the “% Injury 20-40% (number of individuals)” value [4, 8] was 0. The “% Injury <20% (number of individuals)” value [4, 8] was 0, the “% Injury >40% (number of individuals)” value [4, 8] was 5 and the “% Injury Ave” value [4, 8] was 100%. For the same compound, the “% Injury 20-40% (number of individuals)” value [4, 9] was 0, the “% Injury <20% (number of individuals)” value [4, 9] was 0 and the “% Injury >40% (number of individuals)” value [4, 9] was 5. The “% Injury Ave” value [4, 9] was 100%, the “% Injury 20-40% (number of individuals)” value [4, 10] was 0 and the “% Injury <20% (number of individuals)” value [4, 10] was 0. For the same compound, the “% Injury >40% (number of individuals)” value [4, 10] was 5, the “% Injury Ave” value [4, 10] was 100% and the “% Injury 20-40% (number of individuals)” value [5, 7] was 0. The “% Injury <20% (number of individuals)” value [5, 7] was 0, the “% Injury >40% (number of individuals)” value [5, 7] was 5 and the “% Injury Ave” value [5, 7] was 66%. For the same compound, the “% Injury 20-40% (number of individuals)” value [5, 8] was 0, the “% Injury <20% (number of individuals)” value [5, 8] was 0 and the “% Injury >40% (number of individuals)” value [5, 8] was 5. The “% Injury Ave” value [5, 8] was 100%, the “% Injury 20-40% (number of individuals)” value [5, 9] was 0 and the “% Injury <20% (number of individuals)” value [5, 9] was 0. For the same compound, the “% Injury >40% (number of individuals)” value [5, 9] was 5, the “% Injury Ave” value [5, 9] was 100% and the “% Injury 20-40% (number of individuals)” value [5, 10] was 0. The “% Injury <20% (number of individuals)” value [5, 10] was 0, the “% Injury >40% (number of individuals)” value [5, 10] was 5 and the “% Injury Ave” value [5, 10] was 100%. The “% Injury 20-40% (number of individuals)” value [6, 7] was 2, the “% Injury <20% (number of individuals)” value [6, 7] was 13 and the “% Injury >40% (number of individuals)” value [6, 7] was 1. For the same compound, the “% Injury Ave” value [6, 7] was 11%, the “% Injury 20-40% (number of individuals)” value [6, 8] was 1 and the “% Injury <20% (number of individuals)” value [6, 8] was 10. For the same compound, the “% Injury >40% (number of individuals)” value [6, 8] was 5, the “% Injury Ave” value [6, 8] was 34% and the “% Injury 20-40% (number of individuals)” value [6, 9] was 6. For the same compound, the “% Injury <20% (number of individuals)” value [6, 9] was 5, the “% Injury >40% (number of individuals)” value [6, 9] was 5 and the “% Injury Ave” value [6, 9] was 44%. For the same compound, the “% Injury 20-40% (number of individuals)” value [6, 10] was 0, the “% Injury <20% (number of individuals)” value [6, 10] was 0 and the “% Injury >40% (number of individuals)” value [6, 10] was 16. For the same compound, the “% Injury Ave” value [6, 10] was 85%.
